The values that follow come from patent US12571801B2, “Tandem activity-based sensing and labeling strategy for reactive oxygen species imaging” (The Regents of the University of California, priority 2021, dated 2026).

Structures are written as SMILES.

Assay [1] has as its system HeLa cells. The experiment in a line: Confocal imaging of exogenous H2O2 in live HeLa cells. The format is cell-based. The note with it: 5 μM probe; for probe fluorescence in HeLa cells on exogenous H2O2 treatment: H2O2 (1 mM) 60 min vs vehicle, confocal. The protocol: FIGS. 2A-C. Exogenous H2O2 detection. Confocal microscopic images of HeLa cell stained with PG1-FM, PR1-FM, and MitoPY1-FM. (A, B) HeLa cells were pe-stained with PG1-FM (5 μM) or PR1-FM (5 μM) at 37° C. in a 5% CO2 incubator. After incubating for 30 min, the cells were washed with HBSS twice, and treated with H2O2 (1 mM) for 60 min. The cells were observed on confocal microscope after washing with HBSS twice. (C) HeLa cells were pe-stained with MitoPY1-FM (5 μM) at 37° C. in a 5% CO2 incubator. After incubating for 30 min, the cells were washed with HBSS twice, and treated with H2O2 (1 mM) for 60 min. The cells were observed on confocal microscope after staining with MitoBright LT Green for 30 mi. Scale bar: 50 μm.
We next assessed the ability of PG1-FM, MitoPY1-FM, and PR1-FM for visualizing changes in H2O2 levels in live cells with exogenous H2O2 treatment. HeLa cells were pre-stained with 5 μM of PG1-FM, MitoPY1-FM, or PR1-FM, treated with H2O2 (1 mM) or vehicle control, washed, and imaged. MitoPY1-FM stained HeLa cells were co-stained with MitoBright LT Green before imaging. […] We observed that the probes load evenly throughout the cell and responds to elevations in H2O2(FIGS. 2A, 2B, and 2C).
Cells were grown at the UC Berkeley Tissue Culture Facility. HeLa, RAW264.7, and A431 cells were cultured in DMEM (high glucose) supplemented with 10% (v/v) fetal bovine serum, GlutaMAX, and NEAA. All cells were maintained in a humidified 5% CO2 incubator at 37° C.

Assay [2] addresses bovine serum albumin (BSA) (Bos taurus, UniProt P02769). The assay can be described thus: H2O2-dependent activity-based labeling of BSA, SDS-PAGE. The format is biochemical. Particulars: BSA 0.5 mg/mL, with or without H2O2 (100 μM). The protocol: (§1) FIGS. 1A-I. Fluorescence responses and activity-based sensing and labeling properties of PG1-FM, MitoPY1-FM, and PR1-FM. (A, B, C) Activity-based sensing fluorescence responses of 1 μM PG1-FM (A), 1 μM MitoPY1-FM (B), and 1 μM PR1-FM (C) to 25 μM H2O2. Data were acquired in PBS (pH 7.4) at 37° C. (D, E, F) Fluorescence responses of 1 μM PG1-FM (D), 1 μM MitoPY1-FM (E), and 1 μM PR1-FM (F) towards biologically relevant competing reactive oxygen species and reactive nitrogen species. (G, H, I) H2O2-dependent activity-based labeling of PG1-FM (G), MitoPY1-FM (H), and PR1-FM (I) to BSA. A solution of BSA (0.5 mg/mL) and PG1-FM (1 μM), MitoPY1-FM (1 μM), and PR1-FM (1 μM) in PBS (pH 7.4) was incubated with or without H2O2(100 μM) and analyzed by SDS-PAGE gel.
(§2) We first evaluated the in vitro response of PG1-FM, MitoPY1-FM, and PR1-FM to hydrogen peroxide in aqueous solution buffered to physiological pH. […] PG1-FM converted to a fluorescent product that undergoes subsequent hydrolysis with H2O by LC analysis (FIG. 9A-B). […] To establish activity-based labeling of PG1-FM, MitoPY1-FM, and PR1-FM in a H2O2-dependent manner, we incubated the probes with bovine serum albumin (BSA) as a model protein substrate in the presence or absence of H2O2, and the reactions were analyzed by SDS-PAGE.
PG1-FM (10 μM) and BSA (0.5 mg/mL) were incubated at 25° C. for 1 h with or without H2O2 (100 μM). Afterward, Ebselen (100 μM) was added to the mixture to quench excess of H2O2. The obtained samples were separated with Novex™ Mini Gel (Thermo). The gel was first analyzed by ChemiDoc™ MP (Bio-Rad) to take a fluorescence images, and stained with Coomassie brilliant blue (CBB) Solution

The nature of assay [3]: Fluorescence response of probes to H2O2 in buffer. Particulars: 1 μM probe, 25 μM H2O2, PBS (pH 7.4), 37° C. The protocol: as §1, §2
(§3) PG1-FM was dissolved in DMSO to obtain a 1 mM stock solution. The fluorescence spectra of PG1-FM (1 μM) were measured in PBS (−) containing 25 μM of H2O2, OCl^−, TBHP, O2^−, ONOO^−, or NO OCl^−, O2^−, ONOO^−, or NO were generated by using NaOCl (Fluka), potassium superoxide (SIGMA), Peroxynitrite (Cayman), and PROLI NONOate (Cayman), respectively. The fluorescence spectra of PG1-FM were collected an emission window between 500 nm to 650 nm with excitation at 488 nm.

Assay [4] has as its system HeLa cells. The assay can be described thus: Imaging of mitochondrial H2O2 in HeLa cells treated with Antimycin or Rotenone. The format is cell-based. The protocol: FIGS. 7A-B. Confocal microscopic images of HeLa cell stained with MitoPY1-FM. (A) HeLa cell was stained with MitoPY1-FM (5 μM) for 1 h. After washing the cell with non-FBS medium, the cell was treated with Antimycin (1 μM) or Rotenone (1 μM) for 24 h. The cells were observed on confocal microscope after washing the cell. (B) Confocal microscopic images of fixed HeLa cell stained with MitoPY1-FM and Tom 20 antibody. HeLa cells were stained with MitoPY1-FM and then exposed with antimycin A. The treated cells were fixed and stained with Tom 20 antibody before the observation.
We evaluated MitoPY1-FM for imaging mitochondrial H2O2 fluxes produced by inhibition of mitochondrial electron transporter chain. HeLa cells were pre-stained with MitoPY1-FM (5 μM) and stimulated by Antimycin (1 μM) or Rotenone (1 μM) for 24 h to induce ROS and oxidative stress.

The nature of assay [5]: ROS selectivity analysis (fluorescence response to competing ROS/RNS). The note with it: 1 μM probe; OCl−, TBHP, O2−, ONOO−, NO; PBS. The protocol: as §1
FIG. 8. Fluorescence spectra of PG1-FM reacted with […] of OCl^−, TBHP, O2^−, ONOO^−, NO or PBS (control). PG1-FM (1 μM) was incubated with […] of H2O2, OCl^−, TBHP, O2^−, ONOO^−, or NO at 37° C. in PBS (−). The mixtures were measured by fluorometer at any incubating times (0, 5, 15, 30, 45, and 60 min).
as §3

Another assay has as its system zebrafish. The assay can be described thus: In vivo live imaging of endogenous H2O2 in zebrafish, tail fin cut model. The protocol:
FIG. 6. Confocal microscopic images of zebrafish labeled with PR1-FM. Zebrafish embryos in E3 medium containing P1-FM (5 μM) were incubated overnight. The fishes were additionally incubated for 1 hour with containing DPI (100 nM) before the tail fin cut.
We sought to apply PR1-FM for in vivo live imaging to detect endogenous hydrogen peroxide production. PR1-FM was tested with live zebrafish in the regenerated fin model. The larvae at two days post-fertilization (dpf) was pre-stained with PR1-FM (5 μM) overnight before tail fin cut. […] Taken together, PR1-FM can be useful for detecting hydrogen peroxide in live zebrafish.

In a further assay the test system is RAW 264.7 macrophages. The experiment in a line: Imaging and flow cytometry of endogenous H2O2 in PMA-stimulated RAW264.7 macrophages. The format is cell-based, mouse. Particulars: for probe fluorescence in PMA-treated RAW 264.7 cells vs control: probe 10 μM, PMA 1 μg/mL 60 min, confocal microscopy and flow cytometry. A general note: A flow cytometer gives signals particle by particle.

In a further assay the test system is A431 cells. The experiment in a line: Imaging of endogenous H2O2 in EGF-stimulated A431 cells. The format is cell-based. The protocol:
(A) Confocal microscopy (top row) and overlaid brightfield (bottom row) images of A431 cells stained with PG1-FM (10 μM) and then treated with EGF (1 μg/mL) or vehicle control for 30 min, washed and imaged, or first pre-treated with NADPH oxidase inhibitor DPI (5 μM) or antioxidant ebselen (5 μM) for 30 min in HBSS solution before PG1-FM staining and EGF stimulation. (B) Quantification of experiments.

Assay [6] relates to HeLa cells. The assay can be described thus: Imaging and flow cytometry of endogenous H2O2 in paraquat-treated HeLa cells. The format is cell-based. Particulars: paraquat 1 mg/mL 24 h; confocal microscopy, verified by flow cytometry. The protocol:
FIGS. 3A-C. PG1-FM imaging of endogenous H2O2 generation in live HeLa cells under oxidative stress conditions stimulated by paraquat. (A) Confocal microscopy images of HeLa cells treated with or without paraquat (1 mg/mL) for 24 h, stained with PG1-FM (10 μM) for 1 h, washed twice with HBSS, and imaged. Scale bar: 50 μm. (B) Flow cytometry analysis of the cells treated with or without paraquat using PG1-FM using same conditions as (A). (C) Flow cytometric data quantified with mean value. **P<0.01.
We next utilized PG1-FM for imaging endogenous H2O2 fluxes produced by multiple types of cell models under various stimulation conditions. Our first set of experiments along these lines evaluated the performance of the probe under conditions of oxidative stress induced by paraquat treatment. HeLa cells were stimulated with or without paraquat (1 mg/mL) for 24 h to induce ROS and oxidative stress, followed by staining with PG1-FM for 30 min, washing, and imaging. […] Because the probe is cell-trappable, we verified the observed fluorescence enhancements using flow cytometry (FIG. 3B, 3C), highlighting its utility in this analytical method as well.

bovine serum albumin (BSA), sequence (P02769 25-607): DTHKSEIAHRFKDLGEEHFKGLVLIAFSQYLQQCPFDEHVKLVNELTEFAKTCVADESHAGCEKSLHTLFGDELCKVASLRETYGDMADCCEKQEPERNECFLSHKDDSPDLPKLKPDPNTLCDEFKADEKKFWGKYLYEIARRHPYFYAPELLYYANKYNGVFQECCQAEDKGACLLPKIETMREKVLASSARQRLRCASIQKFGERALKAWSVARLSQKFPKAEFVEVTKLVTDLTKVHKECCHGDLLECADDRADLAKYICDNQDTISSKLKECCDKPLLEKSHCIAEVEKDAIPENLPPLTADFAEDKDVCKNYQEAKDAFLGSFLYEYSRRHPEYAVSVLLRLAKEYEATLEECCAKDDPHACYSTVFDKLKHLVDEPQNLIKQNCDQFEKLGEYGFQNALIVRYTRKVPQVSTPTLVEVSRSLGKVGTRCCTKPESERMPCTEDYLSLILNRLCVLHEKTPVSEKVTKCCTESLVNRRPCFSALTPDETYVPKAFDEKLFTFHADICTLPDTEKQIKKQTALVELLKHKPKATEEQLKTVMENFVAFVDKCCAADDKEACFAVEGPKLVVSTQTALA
Description for RAW 264.7 macrophages: (A) Confocal microscopy (top row) and overlaid brightfield (bottom row) images of RAW264.7 macrophages stained with PG1-FM (10 μM) and then treated with PMA (1 μg/mL) or vehicle control for 60 min, washed and imaged, or first pre-treated with NADPH oxidase inhibitor DPI (5 μM) or antioxidant ebselen (5 μM) for 30 min in HBSS solution before PG1-FM staining and PMA stimulation. (B) Flow cytometry histograms and (C) quantification of mean value fluorescence intensity using PG1-FM under same conditions as (A). (D) Confocal microscopic images of RAW264.7 macrophages stained with PR1-FM (10 μM) under same conditions as (A). **P<0.01.
We next tested the ability of PG1-FM and PR1-FM to monitor H2O2 production in RAW 264.7 macrophages.
RAW264.7 cells were plated on a μ-slide 8 well (ibidi) and cultured at 37° C. overnight in a 5% CO2 incubator. The cells were pretreated with inhibitors, DPI (5 μM) or Ebselen (10 μM), for 30 min in HBSS. Afterward, the cells were co-incubated with PG1-FM (10 μM) and PMA (1 μg/mL) with or without DPI or Ebselen. The cells were observed on confocal microscope after washing with HBSS twice.
RAW264.7 cells were plated on a 6 well plate and cultured at 37° C. overnight in a 5% CO2 incubator. The cells were pretreated with inhibitors, DPI (5 μM) or Ebselen (10 μM), for 30 min in HBSS. Afterward, the cells were co-incubated with PG1-FM (5 μM) and PMA (1 μg/mL) with or without DPI or Ebselen. The cells were harvested by 0.05% Trypsin with EDTA, filtered, and analyzed with flow cytometer.

On to `CC1(C)OB(c2ccc3c(c2CF)Oc2cc(N4CCN(C(=O)CCC[P+](c5ccccc5)(c5ccccc5)c5ccccc5)CC4)ccc2C32OC(=O)c3ccccc32)OC1(C)C.[Br-]` (stereo not shown) [MitoPY1-FM, MitoPY1 Fluoromethyl], for which the “localisation by co-staining with MitoBright LT Green” value in the assay with HeLa cells [1] (HeLa cells, H2O2 (1 mM)) is reported as “overlapped with MitoBright LT”. Moreover, the “H2O2-dependent fluorescent labeling of BSA” value in [2] is “fluorescent BSA-associated band was observed only under conditions with H2O2”. Also, the “fluorescence response after treatment with H2O2” value in assay [3] was “clear fluorescence enhancement”. Moreover, in the assay with HeLa cells [4] (MitoPY1-FM 5 μM, Antimycin (1 μM) or Rotenone (1 μM) 24 h), the “probe fluorescence in mitochondria of HeLa cells exposed to electron transport chain inhibitors vs untreated” value is reported as “patent H2O2-dependent fluorescence increases”. Moreover, in the assay with HeLa cells [4] (antimycin A exposed, fixed cells), the “localisation of probe fluorescence in fixed HeLa cells co-stained with Tom20 antibody” value was “enhanced on mitochondria”. Further, in [5], the “selectivity of fluorescence response for H2O2 over other ROS and RNS” value (“selectivity of fluorescence response” below) is reported as “highly selective response for H2O2”.

Turning to `c1ccc2c(c1)[I+]c1ccccc1-2` [DPI, diphenyleneiodonium, reference compound], the “effect of inhibitor on PR1-FM fluorescence in zebrafish after tail fin cut” value in the assay on zebrafish (DPI 100 nM, 1 hour before the tail fin cut) was “lower level of fluorescence”. Moreover, the “effect of inhibitor on PMA-induced probe fluorescence increase in RAW 264.7 cells” value in the assay with RAW 264.7 macrophages (inhibitor pre-treatment 30 min in HBSS) is on record as “fluorescence increases are blocked”. Besides, the “effect of inhibitor on H2O2-induced PG1-FM fluorescence in EGF-stimulated A431 cells” value with A431 cells (inhibitor 5 μM pre-treatment 30 min) is on record as “inhibited H2O2-induced enhancements in PG1-FM fluorescence”.

`CN(C)c1ccc2c(c1)[Si](C)(C)c1c(ccc(B3OC(C)(C)C(C)(C)O3)c1CF)C21OC(=O)c2ccccc21` (stereo not shown) [PR1-FM, Peroxy Red-1 Fluoromethyl]: in the assay with HeLa cells [1], the “probe fluorescence in HeLa cells on exogenous H2O2 treatment” value is on record as “fluorescence increase in the whole cells”. Also, the “H2O2-dependent fluorescent labeling of BSA” value in assay [2] is listed as “fluorescent BSA-associated band was observed only under conditions with H2O2”. Moreover, the “fluorescence response after treatment with H2O2” value in assay [3] is listed as “clear fluorescence enhancement”. Also, the “probe fluorescence in zebrafish post-cut vs pre-cut of tail fin” value with zebrafish (larvae 2 dpf, PR1-FM 5 μM overnight) was “patently higher fluorescence signals in post-cut condition”. The “selectivity of fluorescence response” value in assay [5] was “highly selective response for H2O2”. In the assay on RAW 264.7 macrophages, the “probe fluorescence in PMA-treated RAW 264.7 cells vs control” value was “higher PG1-FM and PR1-FM fluorescence relative to control cells”.

For `COc1ccc2c(c1)Oc1c(ccc(B3OC(C)(C)C(C)(C)O3)c1CF)C21OC(=O)c2ccccc21` (stereo not shown) [PG1-FM, Peroxy Green-1 Fluoromethyl], the “probe fluorescence in HeLa cells on exogenous H2O2 treatment” value in the assay on HeLa cells [1] is recorded as “fluorescence increase in the whole cells”. Also, the “H2O2-dependent fluorescent labeling of BSA” value in assay [2] was “fluorescent BSA-associated band was observed only under conditions with H2O2”. Moreover, in assay [3], the “fluorescence response after treatment with H2O2” value is “clear fluorescence enhancement”. In addition, in [5], the “selectivity of fluorescence response” value is “highly selective response for H2O2”. The “probe fluorescence in PMA-treated RAW 264.7 cells vs control” value with RAW 264.7 macrophages is “higher PG1-FM and PR1-FM fluorescence relative to control cells”. Moreover, the “probe fluorescence in EGF-stimulated A431 cells vs control” value with A431 cells (PG1-FM 10 μM, EGF 1 μg/mL 30 min, confocal) is on record as “clear increase in fluorescence”. In addition, in the assay with HeLa cells [6], the “probe fluorescence in paraquat-exposed vs untreated HeLa cells” value is recorded as “patent H2O2-dependent fluorescence increases”.
